pIC50: −log10 of the molar value.
Assays:
[1] = target: T1, FAK (Homo sapiens, UniProt Q05397); test: Cell-based capture ELISA for inhibition of FAK autophosphorylation [pY397] in MiaPaCa2 cells
Protocol: Cell-Based Assays for Inhibition of FAK Autophosphorylation: MiaPaCa2 and U87MG
ELISA kit from Invitrogen (KHO0441).
Reagents Provided in Biosource FAK [pY397]
The cells were then suspended in cell assay medium.

[2] = target: T1, FAK; test: biochemical
[3] = MIA-PaCa2 cells, + 50% mouse plasma (Table 3), read-out: Mean FAK Cell Mechanistic IC50 + 50% mP MIA-PaCa2
[4] = MIA-PaCa2 cells, + 50% mouse plasma (Table 2), read-out: Mean FAK Cell Mechanistic IC50 + 50% mP MIA-PaCa2
[5] = MIA-PaCa2 cells on fibronectin, 2 h, no plasma, read-out: Mean FAK Cell Mechanistic IC50 MIA-PaCa2
[6] = MIA-PaCa2 cells, + 50% human plasma, read-out: Mean FAK Cell Mechanistic IC50 + 50% hP MIA-PaCa2

T1 sequence (Q05397 whole entry): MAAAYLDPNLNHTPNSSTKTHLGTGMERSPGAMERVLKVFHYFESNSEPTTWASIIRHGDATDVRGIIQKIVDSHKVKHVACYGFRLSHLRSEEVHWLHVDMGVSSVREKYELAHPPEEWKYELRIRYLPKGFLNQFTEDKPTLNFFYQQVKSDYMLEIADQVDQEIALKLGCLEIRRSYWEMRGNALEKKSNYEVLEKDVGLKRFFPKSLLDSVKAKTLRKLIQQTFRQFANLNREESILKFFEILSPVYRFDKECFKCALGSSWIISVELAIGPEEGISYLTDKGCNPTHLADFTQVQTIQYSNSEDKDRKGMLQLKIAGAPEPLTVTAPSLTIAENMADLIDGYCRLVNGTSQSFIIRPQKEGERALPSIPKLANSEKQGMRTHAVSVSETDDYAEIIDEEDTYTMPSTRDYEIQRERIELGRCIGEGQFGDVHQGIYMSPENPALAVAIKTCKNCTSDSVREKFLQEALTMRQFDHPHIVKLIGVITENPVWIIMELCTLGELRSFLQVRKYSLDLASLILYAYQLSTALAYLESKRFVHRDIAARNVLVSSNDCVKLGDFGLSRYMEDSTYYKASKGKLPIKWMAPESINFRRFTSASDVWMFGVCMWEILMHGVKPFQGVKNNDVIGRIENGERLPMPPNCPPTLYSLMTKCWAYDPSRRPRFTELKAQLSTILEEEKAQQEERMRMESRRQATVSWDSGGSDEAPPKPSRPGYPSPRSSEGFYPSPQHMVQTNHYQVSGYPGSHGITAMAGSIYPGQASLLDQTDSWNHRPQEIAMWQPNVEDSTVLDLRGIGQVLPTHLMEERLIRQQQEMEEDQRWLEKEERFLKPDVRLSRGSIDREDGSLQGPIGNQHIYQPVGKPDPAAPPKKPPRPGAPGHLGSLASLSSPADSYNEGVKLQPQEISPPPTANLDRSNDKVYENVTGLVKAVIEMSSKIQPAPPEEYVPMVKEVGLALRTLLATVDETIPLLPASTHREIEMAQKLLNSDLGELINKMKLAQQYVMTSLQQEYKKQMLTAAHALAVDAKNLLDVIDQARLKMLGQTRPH

## CCOP(=O)(OCC)C1CCC(c2ccc(Nc3nc(Nc4ccccc4OC)ncc3C(F)(F)F)c3c2CN(C)C3=O)CC1 (mixture of isomers) [Example 193, Diethyl {4-[7-({2-[(2-methoxyphenyl)amino]-5-(trifluoromethyl)pyrimidin-4-yl}amino)-2-methyl-1-oxo-2,3-dihydro-1H-isoindol-4-yl]cyclohexyl}phosphonate]
[1]; [3]
  pIC50: > 6.00
[2]
  pIC50: > 6.00

## CCOP(=O)(Cc1ccc(Nc2ncc(C(F)(F)F)c(Nc3ccc([C@H]4CC[C@H](O)CC4)c4c3C(=O)N(C)C4)n2)cc1)OCC (stereo in doubt) [Example 92, Diethyl (4-{[4-{[7-(trans-4-hydroxycyclohexyl)-2-methyl-3-oxo-2,3-dihydro-1H-isoindol-4-yl]amino}-5-(trifluoromethyl)pyrimidin-2-yl]amino}benzyl)phosphonate]
[1]; [4]
  pIC50: > 6.00
[2]
  pIC50: > 6.00

## CCOP(=O)(Cc1ccccc1Nc1ncc(C(F)(F)F)c(NCc2cccnc2N(C)S(C)(=O)=O)n1)OCC [Example 3, Diethyl [2-({4-[({2-[methyl(methylsulfonyl)amino]pyridin-3-yl}methyl)amino]-5-(trifluoromethyl)pyrimidin-2-yl}amino)benzyl]phosphonate]
[1]; [5]
  pIC50: < 5.00
[1]; [6]
  pIC50: < 5.00
[2]
  pIC50: > 6.00

## CC(C)P(=O)(Cc1ccc(Nc2ncc(C(F)(F)F)c(NCc3cccnc3N(C)S(C)(=O)=O)n2)cc1)C(C)C [Example 8, N-[3-({[2-({4-[(Dipropan-2-ylphosphoryl)methyl]phenyl}amino)-5-(trifluoromethyl)pyrimidin-4-yl]amino}methyl)pyridin-2-yl]-N-methylmethanesulfonamide]
[1]; [5]
  pIC50: > 6.00
[1]; [6]
  pIC50: > 6.00
[1]; [4]
  pIC50: > 6.00
[2]
  pIC50: > 6.00

## CC(C)P(=O)(Cc1cccc(Nc2ncc(C(F)(F)F)c(NCc3cccnc3N(C)S(C)(=O)=O)n2)c1)C(C)C [Example 9, N-[3-({[2-({3-[(Dipropan-2-ylphosphoryl)methyl]phenyl}amino)-5-(trifluoromethyl)pyrimidin-4-yl]amino}methyl)pyridin-2-yl]-N-methylmethanesulfonamide]
[1]; [5]
  pIC50: > 6.00
[1]; [6]
  pIC50: > 6.00
[1]; [4]
  pIC50: > 6.00
[2]
  pIC50: > 6.00

## CCOP(=O)(Cc1ccc(Nc2ncc(C(F)(F)F)c(Nc3ccc(-c4cnn(C5CC(O)C5)c4)c4c3C(=O)N(C)C4)n2)c(OC)c1)OCC (centres unmarked) [Example 74, Diethyl (4-{[4-({7-[1-(3-hydroxycyclobutyl)-1H-pyrazol-4-yl]-2-methyl-3-oxo-2,3-dihydro-1H-isoindol-4-yl}amino)-5-(trifluoromethyl)pyrimidin-2-yl]amino}-3-methoxybenzyl)phosphonate]
[1]; [4]
  pIC50: > 6.00

## CCOP(=O)(Cc1ccc(Nc2ncc(C(F)(F)F)c(Nc3ccc(-c4cnn(CC(C)(C)O)c4)c4c3C(=O)N(C)C4)n2)c(OC)c1)OCC [Example 98, Diethyl (4-{[4-({7-[1-(2-hydroxy-2-methylpropyl)-1H-pyrazol-4-yl]-2-methyl-3-oxo-2,3-dihydro-1H-isoindol-4-yl}amino)-5-(trifluoromethyl)pyrimidin-2-yl]amino}-3-methoxybenzyl)phosphonate]
[1]; read-out: Mean FAK Cell Mechanistic IC50 + 50% mP MIA-PaCa2, MIA-PaCa2 cells, + 50% mouse plasma (Table 3)
  pIC50: > 6.00

## CCOP(=O)(Cc1ccc(Nc2ncc(C(F)(F)F)c(Nc3ccc(C4=CCN(C(N)=O)CC4)c4c3C(=O)N(C)C4)n2)c(OC)c1)OCC [Example 99, Diethyl (4-{[4-{[7-(1-carbamoyl-1,2,3,6-tetrahydropyridin-4-yl)-2-methyl-3-oxo-2,3-dihydro-1H-isoindol-4-yl]amino}-5-(trifluoromethyl)pyrimidin-2-yl]amino}-3-methoxybenzyl)phosphonate]
[1]; [3]
  pIC50: > 6.00

## CCOP(=O)(Cc1ccc(Nc2ncc(C(F)(F)F)c(Nc3ccc(N4CCS(=O)(=O)CC4)c4c3C(=O)N(C)C4)n2)cc1)OCC [Example 212, Diethyl (4-{[4-{[7-(1,1-dioxidothiomorpholin-4-yl)-2-methyl-3-oxo-2,3-dihydro-1H-isoindol-4-yl]amino}-5-(trifluoromethyl)pyrimidin-2-yl]amino}benzyl)phosphonate]
[2]
  pIC50: > 6.00

## CCOP(=O)(Cc1ccc(Nc2ncc(C(F)(F)F)c(Nc3ccc(N4CCOCC4)c4c3C(=O)N(C)C4)n2)c(OC)c1)OCC [Example 215, Diethyl (3-methoxy-4-{[4-{[2-methyl-7-(morpholin-4-yl)-3-oxo-2,3-dihydro-1H-isoindol-4-yl]amino}-5-(trifluoromethyl)pyrimidin-2-yl]amino}benzyl)phosphonate]
[2]
  pIC50: > 6.00

## CCOP(=O)(Cc1ccc(Nc2ncc(C(F)(F)F)c(Nc3ccc(N4CCN(C)CC4)c4c3C(=O)N(C)C4)n2)c(OC)c1)OCC [Example 224, Diethyl (3-methoxy-4-{[4-{[2-methyl-7-(4-methylpiperazin-1-yl)-3-oxo-2,3-dihydro-1H-isoindol-4-yl]amino}-5-(trifluoromethyl)pyrimidin-2-yl]amino}benzyl)phosphonate]
[2]
  pIC50: > 6.00

## CCOP(=O)(Cc1ccc(Nc2ncc(C(F)(F)F)c(Nc3ccc(N4CCN(CC(=O)OC(C)(C)C)CC4)c4c3C(=O)N(C)C4)n2)cc1)OCC [Example 225, tert-Butyl [4-(7-{[2-({4-[(diethoxyphosphoryl)methyl]phenyl}amino)-5-(trifluoromethyl)pyrimidin-4-yl]amino}-2-methyl-1-oxo-2,3-dihydro-1H-isoindol-4-yl)piperazin-1-yl]acetate]
[2]
  pIC50: > 6.00

## CCOP(=O)(Cc1ccc(Nc2ncc(C(F)(F)F)c(Nc3ccc(N4CCN(CC(=O)OC(C)(C)C)CC4)c4c3C(=O)N(C)C4)n2)c(OC)c1)OCC [Example 226, tert-Butyl [4-(7-{[2-({4-[(diethoxyphosphoryl)methyl]-2-methoxyphenyl}amino)-5-(trifluoromethyl)pyrimidin-4-yl]amino}-2-methyl-1-oxo-2,3-dihydro-1H-isoindol-4-yl)piperazin-1-yl]acetate]
[2]
  pIC50: > 6.00

## CCOP(=O)(Cc1ccc(Nc2ncc(C(F)(F)F)c(Nc3ccc(N4CC(O)C4)c4c3C(=O)N(C)C4)n2)cc1)OCC [Example 227, Diethyl (4-{[4-{[7-(3-hydroxyazetidin-1-yl)-2-methyl-3-oxo-2,3-dihydro-1H-isoindol-4-yl]amino}-5-(trifluoromethyl)pyrimidin-2-yl]amino}benzyl)phosphonate]
[2]
  pIC50: > 6.00

## CCOP(=O)(Cc1ccc(Nc2ncc(C(F)(F)F)c(Nc3ccc([C@H]4CC[C@H](OP(=O)(O)O)CC4)c4c3C(=O)N(C)C4)n2)c(OC)c1)OCC [Example 228, Diethyl (3-methoxy-4-{[4-({2-methyl-3-oxo-7-[trans-4-(phosphonooxy)cyclohexyl]-2,3-dihydro-1H-isoindol-4-yl}amino)-5-(trifluoromethyl)pyrimidin-2-yl]amino}benzyl)phosphonate]
[2]
  pIC50: > 6.00

## CCOP(=O)(Cc1ccc(Nc2ncc(C(F)(F)F)c(Nc3ccc([C@H]4CC[C@@H](N5CCN(C(C)=O)CC5)CC4)c4c3C(=O)N(C)C4)n2)c(OC)c1)OCC [Example 237, Diethyl (4-{[4-({7-[cis-4-(4-acetylpiperazin-1-yl)cyclohexyl]-2-methyl-3-oxo-2,3-dihydro-1H-isoindol-4-yl}amino)-5-(trifluoromethyl)pyrimidin-2-yl]amino}-3-methoxybenzyl)phosphonate]
[1]; [3]
  pIC50: > 6.00

## CCOP(=O)(Cc1ccc(Nc2ncc(C(F)(F)F)c(Nc3ccc(C4=CCNCC4)c4c3C(=O)N(C)C4)n2)cc1)OCC [Example 246, Diethyl (4-{[4-{[2-methyl-3-oxo-7-(1,2,3,6-tetrahydropyridin-4-yl)-2,3-dihydro-1H-isoindol-4-yl]amino}-5-(trifluoromethyl)pyrimidin-2-yl]amino}benzyl)phosphonate]
[2]
  pIC50: > 6.00

## CCOP(=O)(Cc1ccc(Nc2ncc(C(F)(F)F)c(Nc3ccc(C4=CCN(C)CC4)c4c3C(=O)N(C)C4)n2)cc1)OCC [Example 248, Diethyl (4-{[4-{[2-methyl-7-(1-methyl-1,2,3,6-tetrahydropyridin-4-yl)-3-oxo-2,3-dihydro-1H-isoindol-4-yl]amino}-5-(trifluoromethyl)pyrimidin-2-yl]amino}benzyl)phosphonate]
[2]
  pIC50: > 6.00

## CCOP(=O)(O)Cc1ccc(Nc2ncc(C(F)(F)F)c(Nc3ccc(N4CCN(C)CC4)c4c3C(=O)N(C)C4)n2)cc1 [Example 249, Ethyl hydrogen (4-{[4-{[2-methyl-7-(4-methylpiperazin-1-yl)-3-oxo-2,3-dihydro-1H-isoindol-4-yl]amino}-5-(trifluoromethyl)pyrimidin-2-yl]amino}benzyl) phosphonate]
[2]
  pIC50: > 6.00

## CCOP(=O)(Cc1ccc(Nc2ncc(C(F)(F)F)c(Nc3ccc(N4CCN(CC(=O)O)CC4)c4c3C(=O)N(C)C4)n2)c(OC)c1)OCC [Example 252, [4-(7-{[2-({4-[(Diethoxyphosphoryl)methyl]-2-methoxyphenyl}amino)-5-(trifluoromethyl)pyrimidin-4-yl]amino}-2-methyl-1-oxo-2,3-dihydro-1H-isoindol-4-yl)piperazin-1-yl]acetic acid]
[2]
  pIC50: > 6.00

## CCOP(=O)(O)Cc1ccc(Nc2ncc(C(F)(F)F)c(Nc3ccc(N4CCN(C)CC4)c4c3C(=O)N(C)C4)n2)c(OC)c1 [Example 254, Ethyl hydrogen (3-methoxy-4-{[4-{[2-methyl-7-(4-methylpiperazin-1-yl)-3-oxo-2,3-dihydro-1H-isoindol-4-yl]amino}-5-(trifluoromethyl)pyrimidin-2-yl]amino}benzyl)phosphonate]
[2]
  pIC50: > 6.00

## CN1Cc2c(c(Nc3nc(Nc4ccc(CP5(=O)OCCCO5)cc4)ncc3C(F)(F)F)ccc2[C@H]2CC[C@H](O)CC2)C1=O [compound 230]
[1]; [3]
  pIC50: > 6.00

Source: patent US9096624B2 (OSI Pharmaceuticals, LLC, priority 2009, dated 2015)
